The record followed here is patent US12558358B2 (UNIVERZITA PALACKEHO V OLOMOUCI, priority 2019, dated 2026).

For the experiment, the system named is cancer cell line A549. Description: Resazurin viability of A549 cells, pretreatment plus antineoplastics (Example 7). The experiment is classed as cell-based, human. To be noted: pretreatment 100 μM, antineoplastics 3.3 μM, 72 incubation, FIG. 7. How it is done:
Human cancer cell line A549 was maintained in standard cultivation medium DMEM with 10% fetal bovine serum. 1000 cells were seeded into the wells of 384-well plate in 30 microliters of RPMI medium. After 24 hours, dexamethasone (final concentration 100 nM) was added in order to synchronize circadian oscillator together with N-(furan-2-ylmethyl)-7H-purin-6-amin (final concentration 100 μM) or DMSO vehicle. After 12 hours, DMSO vehicle or the evaluated antineoplastics (the final concentration 3.3 μM) were added. The compounds were dosed by ECHO system, the DMSO solutions were 1000-times concentrated. After 72 incubation, 1000-times concentrated solution of resazurin in DMSO to a final concentration of 0.0125 mg/ml was added. Fluorescence was measured after 3-hour incubation. […] An equivalent cytotoxic effect can be therefore achieved by an application of lower dose of antineoplastics.
(In general: Alamar Blue is a resazurin reagent that responds to reducing activity.)

In the case of `c1coc(CNc2ncnc3nc[nH]c23)c1` [N-(furan-2-ylmethyl)-7H-purin-6-amine], the “activity of antineoplastics on A549 viability after pretreatment” value is listed as “increases activity of antineoplastics”.
